Key:
Type in all cases: cell-based
[1] = tested on: Staphylococcus aureus ATCC 6538; assay: A.O.A.C. sanitizer and germicidal detergent test
Excerpt: (§1) The bacterial cultures were purchased from the American Type Culture Collection (ATCC), (Bethesda, Md.). Escherichia coli and Staphylococcus aureus are used to represent both gram-negative and gram-positive bacterial classes. This test is used by the US EPA for to determine compliance for a product to be used as a sanitizing agent. A product that reduces population density of both types of bacteria in 30 seconds by 99.999% satisfies the requirement as a sanitizing agent.

[2] = tested on: Escherichia coli ATCC 11229; assay: A.O.A.C. sanitizer and germicidal detergent test
Excerpt: as §1

[3] = tested on: L. m. 7644 (Listeria monocytogenes); assay: modified A.O.A.C. germicidal and detergent sanitizer test
Experimental: (§2) The efficacy of the sanitizers in Examples 1, 2 and 3 was further evaluated with […] as controls against Salmonella typhimurium, Listeria monocytogenes, Aeromonas hydrophila, and Pseudomonas aeruginosa essentially by the modified detergent and germicidal sanitizer test of the A.O.A.C. The sanitizers were tested against both natural isolates and the antibiotic resistant strains of Listeria monocytogenes and Salmonella typhimurium. Each of the antibiotic resistant strains was used separately as well as in a composite strain prepared by mixing equal numbers of five different antibiotic resistant strains of Listeria monocytogenes or those of Salmonella typhimurium, respectively.

[4] = tested on: P. a. 10145 (Pseudomonas aeruginosa); assay: as above
Experimental: as §2

[5] = tested on: A. h. 7965 (Aeromonas hydrophila); assay: as above
Experimental: as §2

[6] = tested on: S. t. 7823 (Salmonella typhimurium); assay: as above
Experimental: as §2

[7] = sanitizer criterion is 99.999% reduction in 30 seconds

OCl [Hypochlorite]
meets criterion of a sanitizer (99.999% reduction in 30 seconds) ([1]; Fifty ppm hypochlorite): meets the criterion of a sanitizer | % Kill Staph. aureus [1, 7]: >99.999% | meets criterion of a sanitizer (99.999% reduction in 30 seconds) ([2]; Fifty ppm hypochlorite): meets the criterion of a sanitizer | % Kill E. coli [2, 7]: >99.999% | % Kill ([3]; 30 seconds contact): >99.999% | % Kill ([3]; 60 seconds contact): >99.999% | % Kill ([4]; 30 seconds contact): >99.999% | % Kill ([4]; 60 seconds contact): >99.999% | % Kill ([5]; 30 seconds contact): >99.999% | % Kill ([5]; 60 seconds contact): >99.999% | % Kill ([6]; 30 seconds contact): <99.999% | Number of surviving bacteria/ml after contact, cfu/ml ([6]; 30 seconds contact, HOCL = 50 ppm, duplicate counts): T@, T@ | % Kill ([6]; 60 seconds contact): >99.999%
